# Source: paper PMC3382171 (PLoS ONE, 2012)
# Legend:
# Assay in all cases: biochemical
# Settings in all cases: read-out: Upstate KSS % inhibition at 1uM
# IKKalpha = molecular target: T1, IKKalpha (Homo sapiens, UniProt O15111)
# T1 construct: gene CHUK
# Description: (§1) In these selectivity assays the concentration of ATP was set to the Km value of ATP for each kinase tested to allow for a relative potency comparison between the various kinases. The compounds were tested at 1 µM final concentration. […] (A) Kinase selectivity screen (KSS) performed at Upstate Biotechnology. […] (B) KSS performed at University of Dundee (Division of Signal Transduction Therapy). […] (PDF) Click here for additional data file.
# PKCalpha = molecular target: T2, PKCalpha (Homo sapiens, UniProt P17252)
# T2 construct: gene PRKCA
# Description: as §1
# ROCK-11 = molecular target: T3, ROCK-11 (Homo sapiens, UniProt O75116)
# T3 construct: gene ROCK2
# T3 sequence (O75116 whole entry): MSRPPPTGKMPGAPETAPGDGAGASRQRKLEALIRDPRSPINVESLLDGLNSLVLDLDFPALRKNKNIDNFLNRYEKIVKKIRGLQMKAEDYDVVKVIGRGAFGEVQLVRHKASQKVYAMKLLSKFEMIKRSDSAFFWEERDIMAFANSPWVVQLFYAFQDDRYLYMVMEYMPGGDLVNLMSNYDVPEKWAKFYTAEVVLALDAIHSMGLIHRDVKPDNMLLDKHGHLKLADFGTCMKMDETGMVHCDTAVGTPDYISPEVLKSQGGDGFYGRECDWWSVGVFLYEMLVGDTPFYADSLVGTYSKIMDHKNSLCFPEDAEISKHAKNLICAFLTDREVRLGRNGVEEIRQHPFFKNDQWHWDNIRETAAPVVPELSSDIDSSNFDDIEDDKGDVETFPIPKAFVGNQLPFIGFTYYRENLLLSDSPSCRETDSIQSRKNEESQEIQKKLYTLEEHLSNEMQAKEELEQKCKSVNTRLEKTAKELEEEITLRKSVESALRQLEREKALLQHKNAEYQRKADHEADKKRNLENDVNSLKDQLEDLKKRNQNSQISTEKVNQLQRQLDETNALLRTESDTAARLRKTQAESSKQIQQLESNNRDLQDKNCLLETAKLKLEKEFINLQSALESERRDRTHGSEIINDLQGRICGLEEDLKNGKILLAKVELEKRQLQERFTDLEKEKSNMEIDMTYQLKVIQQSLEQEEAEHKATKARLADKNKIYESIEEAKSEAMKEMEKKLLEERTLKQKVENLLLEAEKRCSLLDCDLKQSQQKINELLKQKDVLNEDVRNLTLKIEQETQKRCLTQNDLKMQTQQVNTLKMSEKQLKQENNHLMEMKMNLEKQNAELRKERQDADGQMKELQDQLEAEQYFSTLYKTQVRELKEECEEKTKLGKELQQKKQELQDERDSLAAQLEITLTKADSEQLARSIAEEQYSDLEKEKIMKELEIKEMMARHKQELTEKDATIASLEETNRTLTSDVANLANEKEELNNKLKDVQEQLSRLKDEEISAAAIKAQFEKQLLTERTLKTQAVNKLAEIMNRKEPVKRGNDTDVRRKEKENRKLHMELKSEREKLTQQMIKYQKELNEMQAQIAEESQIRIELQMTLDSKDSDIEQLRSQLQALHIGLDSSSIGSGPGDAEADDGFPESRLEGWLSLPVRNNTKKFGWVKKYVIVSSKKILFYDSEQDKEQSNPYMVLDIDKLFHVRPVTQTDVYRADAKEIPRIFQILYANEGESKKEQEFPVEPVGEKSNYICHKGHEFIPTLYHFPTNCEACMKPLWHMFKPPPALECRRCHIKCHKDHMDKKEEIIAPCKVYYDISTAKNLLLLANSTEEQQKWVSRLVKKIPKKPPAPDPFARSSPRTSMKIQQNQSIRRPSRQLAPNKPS
# Description: as §1
# PKCiota = molecular target: T4, PKCiota (Homo sapiens, UniProt P41743)
# T4 construct: gene PRKCI
# Description: as §1
# PhKgamma = molecular target: T5, PhKgamma (Homo sapiens, UniProt Q16816)
# T5 construct: gene PHKG1
# Description: as §1
# Lyn = Lyn (Homo sapiens, UniProt P07948)
# Description: as §1
# Tie2 = molecular target: T6, Tie2 (Homo sapiens, UniProt Q02763)
# T6 construct: gene TEK
# Description: as §1
# BMX = BMX (Homo sapiens, UniProt P51813)
# BMX, sequence (P51813 whole entry): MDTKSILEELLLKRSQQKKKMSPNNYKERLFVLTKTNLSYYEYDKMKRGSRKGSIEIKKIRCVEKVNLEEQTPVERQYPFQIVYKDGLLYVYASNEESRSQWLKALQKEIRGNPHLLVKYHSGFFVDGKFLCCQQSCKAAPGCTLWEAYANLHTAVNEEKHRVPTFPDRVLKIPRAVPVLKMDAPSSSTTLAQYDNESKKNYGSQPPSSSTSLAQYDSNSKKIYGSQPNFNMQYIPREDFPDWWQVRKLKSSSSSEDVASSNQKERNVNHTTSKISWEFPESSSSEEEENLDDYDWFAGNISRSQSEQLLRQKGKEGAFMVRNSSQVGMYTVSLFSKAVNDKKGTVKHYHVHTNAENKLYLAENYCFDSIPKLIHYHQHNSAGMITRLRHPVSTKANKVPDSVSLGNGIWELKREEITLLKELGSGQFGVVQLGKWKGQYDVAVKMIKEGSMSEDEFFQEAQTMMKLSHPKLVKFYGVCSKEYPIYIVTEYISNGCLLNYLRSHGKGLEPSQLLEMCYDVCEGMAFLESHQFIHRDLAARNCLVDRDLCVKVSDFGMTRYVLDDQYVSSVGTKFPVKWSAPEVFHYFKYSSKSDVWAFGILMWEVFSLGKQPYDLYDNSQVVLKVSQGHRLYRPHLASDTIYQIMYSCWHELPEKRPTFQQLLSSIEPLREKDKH
# Description: as §1
# JNK2alpha2 = molecular target: T7, JNK2alpha2 (Homo sapiens, UniProt P45984)
# T7 construct: gene MAPK9; isoform alpha2
# Description: as §1
# PAR-1Balpha = molecular target: T8, PAR-1Balpha (Homo sapiens, UniProt Q7KZI7)
# T8 construct: gene MARK2
# T8 sequence (Q7KZI7 whole entry): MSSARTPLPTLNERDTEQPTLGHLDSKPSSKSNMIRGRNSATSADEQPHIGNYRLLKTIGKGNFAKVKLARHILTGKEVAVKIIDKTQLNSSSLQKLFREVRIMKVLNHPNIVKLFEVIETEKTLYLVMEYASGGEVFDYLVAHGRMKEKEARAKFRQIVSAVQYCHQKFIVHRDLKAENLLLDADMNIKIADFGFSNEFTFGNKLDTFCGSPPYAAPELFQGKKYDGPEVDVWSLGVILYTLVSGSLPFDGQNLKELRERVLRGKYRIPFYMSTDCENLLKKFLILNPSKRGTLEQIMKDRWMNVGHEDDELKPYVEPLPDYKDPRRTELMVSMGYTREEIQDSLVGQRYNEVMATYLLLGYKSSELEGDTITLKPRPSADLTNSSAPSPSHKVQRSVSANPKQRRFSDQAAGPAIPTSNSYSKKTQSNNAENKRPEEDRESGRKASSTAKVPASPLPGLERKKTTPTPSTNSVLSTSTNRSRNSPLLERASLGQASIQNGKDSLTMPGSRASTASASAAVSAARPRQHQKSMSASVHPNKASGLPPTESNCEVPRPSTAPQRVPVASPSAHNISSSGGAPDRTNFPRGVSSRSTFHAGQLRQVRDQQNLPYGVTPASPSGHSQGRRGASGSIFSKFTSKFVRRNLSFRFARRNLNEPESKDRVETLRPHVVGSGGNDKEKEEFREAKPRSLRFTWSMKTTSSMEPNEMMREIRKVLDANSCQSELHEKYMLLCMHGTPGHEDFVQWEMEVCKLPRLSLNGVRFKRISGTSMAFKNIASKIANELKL
# Description: as §1
# IR = molecular target: T9, IR (Homo sapiens, UniProt P06213)
# T9 construct: gene INSR
# Description: as §1
# RSK2 = molecular target: T10, RSK2 (Homo sapiens, UniProt P51812)
# T10 construct: gene RPS6KA3
# Description: as §1
# FYN = FYN (Homo sapiens, UniProt P06241)
# Description: as §1
# MELK = MELK (Homo sapiens, UniProt Q14680)
# Description: as §1
# TSSK2 = TSSK2 (Homo sapiens, UniProt Q96PF2)
# Description: as §1
# MKK6 = molecular target: T11, MKK6 (Homo sapiens, UniProt P52564)
# T11 construct: gene MAP2K6
# Description: as §1
# Rsk1 = molecular target: T12, Rsk1 (Homo sapiens, UniProt Q15418)
# T12 construct: gene RPS6KA1
# Description: as §1
# MAPK2 = molecular target: T13, MAPK2 (Homo sapiens, UniProt P28482)
# T13 construct: gene MAPK1
# Description: as §1
# HIPK2 = HIPK2 (Homo sapiens, UniProt Q9H2X6)
# Description: as §1
# Aurora-A = molecular target: T14, Aurora-A (Homo sapiens, UniProt O14965)
# T14 construct: gene AURKA
# Description: as §1
# AXL = AXL (Homo sapiens, UniProt P30530)
# Description: as §1
# FAK = molecular target: T15, FAK (Homo sapiens, UniProt Q05397)
# T15 construct: gene PTK2
# Description: as §1
# PKBgamma = molecular target: T16, PKBgamma (Homo sapiens, UniProt Q9Y243)
# T16 construct: gene AKT3
# Description: as §1
# PDGFRbeta = molecular target: T17, PDGFRbeta (Homo sapiens, UniProt P09619)
# T17 construct: gene PDGFRB
# T17 sequence (P09619 whole entry): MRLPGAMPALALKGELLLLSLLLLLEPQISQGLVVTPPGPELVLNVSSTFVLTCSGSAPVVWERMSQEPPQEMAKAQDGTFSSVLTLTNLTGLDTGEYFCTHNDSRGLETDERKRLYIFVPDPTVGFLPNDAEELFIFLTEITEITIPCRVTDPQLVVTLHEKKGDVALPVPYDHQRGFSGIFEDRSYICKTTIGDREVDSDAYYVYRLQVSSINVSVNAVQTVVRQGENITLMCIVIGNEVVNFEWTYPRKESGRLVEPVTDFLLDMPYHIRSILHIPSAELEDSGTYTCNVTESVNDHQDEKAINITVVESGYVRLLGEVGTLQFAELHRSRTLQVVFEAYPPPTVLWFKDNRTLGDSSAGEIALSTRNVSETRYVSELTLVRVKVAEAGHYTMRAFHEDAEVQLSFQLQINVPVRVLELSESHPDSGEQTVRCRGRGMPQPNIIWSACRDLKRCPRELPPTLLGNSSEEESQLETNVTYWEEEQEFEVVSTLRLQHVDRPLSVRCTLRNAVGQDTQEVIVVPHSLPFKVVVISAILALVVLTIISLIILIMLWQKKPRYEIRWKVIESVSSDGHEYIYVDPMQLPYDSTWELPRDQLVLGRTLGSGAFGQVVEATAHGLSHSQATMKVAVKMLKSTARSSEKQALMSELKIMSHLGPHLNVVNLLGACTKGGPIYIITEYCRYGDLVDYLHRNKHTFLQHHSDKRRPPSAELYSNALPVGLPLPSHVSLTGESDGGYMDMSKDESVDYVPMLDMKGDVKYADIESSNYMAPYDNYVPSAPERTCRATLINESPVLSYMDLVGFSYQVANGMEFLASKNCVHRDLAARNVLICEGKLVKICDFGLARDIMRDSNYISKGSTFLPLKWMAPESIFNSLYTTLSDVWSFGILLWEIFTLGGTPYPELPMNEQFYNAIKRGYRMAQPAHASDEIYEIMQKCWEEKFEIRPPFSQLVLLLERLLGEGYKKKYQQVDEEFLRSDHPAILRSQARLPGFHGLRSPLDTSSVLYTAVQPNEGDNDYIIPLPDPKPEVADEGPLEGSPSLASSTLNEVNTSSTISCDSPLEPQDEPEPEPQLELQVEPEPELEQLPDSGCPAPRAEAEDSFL
# Description: as §1
# Rse = molecular target: T18, Rse (Homo sapiens, UniProt Q06418)
# T18 construct: gene TYRO3
# Description: as §1
# SAPK2b = molecular target: T19, SAPK2b (Homo sapiens, UniProt Q15759)
# T19 construct: gene MAPK11
# Description: as §1
# Arg = molecular target: T20, Arg (Homo sapiens, UniProt P42684)
# T20 construct: gene ABL2
# Description: as §1
# PKCtheta = molecular target: T21, PKCtheta (Homo sapiens, UniProt Q04759)
# T21 construct: gene PRKCQ
# Description: as §1
# Yes = molecular target: T22, Yes (Homo sapiens, UniProt P07947)
# T22 construct: gene YES1
# Description: as §1
# ALK = ALK (Homo sapiens, UniProt Q9UM73)
# Description: as §1
# EPHB4 = EPHB4 (Homo sapiens, UniProt P54760)
# EPHB4, sequence (P54760 whole entry): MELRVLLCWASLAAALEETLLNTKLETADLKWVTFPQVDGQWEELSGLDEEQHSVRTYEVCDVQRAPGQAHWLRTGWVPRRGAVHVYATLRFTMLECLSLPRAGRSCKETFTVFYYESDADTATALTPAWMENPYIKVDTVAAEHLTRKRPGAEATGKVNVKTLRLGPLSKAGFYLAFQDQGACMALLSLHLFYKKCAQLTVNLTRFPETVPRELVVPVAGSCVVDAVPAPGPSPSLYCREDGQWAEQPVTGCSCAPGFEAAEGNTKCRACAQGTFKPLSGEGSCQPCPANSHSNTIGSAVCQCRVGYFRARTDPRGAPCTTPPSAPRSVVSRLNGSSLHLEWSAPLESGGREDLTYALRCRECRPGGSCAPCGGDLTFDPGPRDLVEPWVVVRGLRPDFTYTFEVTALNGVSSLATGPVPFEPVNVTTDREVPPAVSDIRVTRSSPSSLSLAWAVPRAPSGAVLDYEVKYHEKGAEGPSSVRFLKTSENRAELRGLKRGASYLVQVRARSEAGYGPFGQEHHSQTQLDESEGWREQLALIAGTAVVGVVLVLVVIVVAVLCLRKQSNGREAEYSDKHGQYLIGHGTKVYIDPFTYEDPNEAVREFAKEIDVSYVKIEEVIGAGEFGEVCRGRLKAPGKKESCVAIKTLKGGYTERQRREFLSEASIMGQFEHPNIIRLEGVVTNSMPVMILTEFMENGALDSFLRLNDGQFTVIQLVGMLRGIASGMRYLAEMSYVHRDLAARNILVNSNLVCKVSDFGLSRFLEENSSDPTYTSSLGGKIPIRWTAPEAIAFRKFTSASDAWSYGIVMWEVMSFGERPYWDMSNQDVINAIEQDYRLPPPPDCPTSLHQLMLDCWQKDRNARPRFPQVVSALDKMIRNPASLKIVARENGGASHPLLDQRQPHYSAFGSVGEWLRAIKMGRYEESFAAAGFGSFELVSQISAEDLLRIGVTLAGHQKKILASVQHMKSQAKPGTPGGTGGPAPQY
# Description: as §1
# CHK2 = molecular target: T23, CHK2 (Homo sapiens, UniProt O96017)
# T23 construct: gene CHEK2
# Description: as §1
# WNK2 = WNK2 (Homo sapiens, UniProt Q9Y3S1)
# Description: as §1
# CaMKIV = molecular target: T24, CaMKIV (Homo sapiens, UniProt Q16566)
# T24 construct: gene CAMK4
# Description: as §1
compound,measurement,setting,value
"OCCn1cc(-c2cnc3nnn(Cc4ccc5ncccc5c4)c3n2)cn1 [METi, PF-04217903]",inhibition at 1 µM,IKKalpha,-2%
same,inhibition at 1 µM,PKCalpha,-7%
same,inhibition at 1 µM,ROCK-11,0%
same,inhibition at 1 µM,PKCiota,0%
same,inhibition at 1 µM,PhKgamma,-3%
same,inhibition at 1 µM,Lyn,2%
same,inhibition at 1 µM,Tie2,-32%
same,inhibition at 1 µM,BMX,-10%
same,inhibition at 1 µM,JNK2alpha2,-2%
same,inhibition at 1 µM,PAR-1Balpha,17%
same,inhibition at 1 µM,IR,8%
same,inhibition at 1 µM,RSK2,-22%
same,inhibition at 1 µM,FYN,-20%
same,inhibition at 1 µM,MELK,2%
same,inhibition at 1 µM,TSSK2,4%
same,inhibition at 1 µM,MKK6,-13%
same,inhibition at 1 µM,Rsk1,-11%
same,inhibition at 1 µM,MAPK2,-7%
same,inhibition at 1 µM,HIPK2,8%
same,inhibition at 1 µM,Aurora-A,-7%
same,inhibition at 1 µM,AXL,-11%
same,inhibition at 1 µM,FAK,-9%
same,inhibition at 1 µM,PKBgamma,5%
same,inhibition at 1 µM,PDGFRbeta,-27%
same,inhibition at 1 µM,Rse,4%
same,inhibition at 1 µM,SAPK2b,1%
same,inhibition at 1 µM,Arg,10%
same,inhibition at 1 µM,PKCtheta,-10%
same,inhibition at 1 µM,Yes,16%
same,inhibition at 1 µM,ALK,54%
same,inhibition at 1 µM,EPHB4,-23%
same,inhibition at 1 µM,CHK2,0%
same,inhibition at 1 µM,WNK2,-16%
same,inhibition at 1 µM,CaMKIV,-4%
